In patent publication US7767659B2, “Synthesis of naturally occurring ecteinascidins and related compounds” (Pharma Mar, S.A., priority 2002, dated 2010):
Read-outs that look alike come from different tables or passages of the source.

How the values were obtained:
HT-29 = assay: cells; conditions: for GI50: read-out: GI50 HT29; for CC50: read-out: LC50 HT29; for IC (TGI): read-out: TGI HT29
Method: (§1) This form of the assay employs 96 well cell culture microplates of 9 mm diameter (Faircloth, 1988; Mosmann, 1983). Most of the cell lines are obtained from American Type Culture Collection (ATCC) derived from different human cancer types.
(§2) Cells are maintained in RPMI 1640 10% FBS, supplemented with 0.1 g/l penicillin and 0.1 g/l streptomycin sulfate and then incubated at 37° C., 5% CO2 and 98% humidity. For the experiments, cells were harvested from subconfluent cultures using trypsin and resuspended in fresh medium before plating.
(§3) Cells are seeded in 96 well microtiter plates, at 5×10^3 cells per well in aliquots of 195 μl medium, and they are allowed to attach to the plate surface by growing in drug free medium for 18 hours. Afterward, samples are added in aliquots of 5 μl in a ranging from 10 to 10^−8 μg/ml, dissolved in DMSO/EtOH/PBS (0.5:0.5:99). After 48 hours exposure, the antitumor effect are measured by the SRB methodology: cells are fixed by adding 50 μl of cold 50% (wt/vol) trichloroacetic acid (TCA) and incubating for 60 minutes at 4° C. Plates are washed with deionized water and dried. One hundred μl of SRB solution (0.4% wt/vol in 1% acetic acid) is added to each microtiter well and incubated for 10 minutes at room temperature. Unbound SRB is removed by washing with 1% acetic acid. Plates are air dried and bound stain is solubilzed with Tris buffer. Optical densities are read on a automated spectrophotometric plate reader at a single wavelength of 490 nm.
(§4) The values for mean +/− SD of data from triplicate wells are calculated. Some parameters for cellular responses can be calculated: GI=growth inhibition, TGI=total growth inhibition (cytostatic effect) and LC=cell killing (cytotoxic effect).

A-549 = assay: cells; conditions: for GI50: read-out: GI50 A549; for CC50: read-out: LC50 A549; for IC (TGI): read-out: TGI A549
Method: as §1, §2, §3, §4

SMILES | GI50 (HT-29; Homo sapiens, HT-29, 48 h) [µM] | CC50 (HT-29; Homo sapiens, HT-29, 48 h) [µM] | IC (TGI) (HT-29; Homo sapiens, HT-29, 48 h) [µM] | GI50 (A-549; Homo sapiens, A549, 48 h) [µM] | CC50 (A-549; Homo sapiens, A549, 48 h) [µM] | IC (TGI) (A-549; Homo sapiens, A549, 48 h) [µM] | TGI HT29 (HT-29; HT29, SRB, 48 hours exposure) [Molar] | GI50 (HT-29; HT29, SRB, 48 hours exposure) [µM] | CC50 (HT-29; HT29, SRB, 48 hours exposure) [µM] | TGI A549 (A-549; A549, SRB, 48 hours exposure) [Molar] | GI50 (A-549; A549, SRB, 48 hours exposure) [µM] | CC50 (A-549; A549, SRB, 48 hours exposure) [µM]
C=CCOc1c(C)c2c(c3c1CC1[C@H]4c5c(cc(C)c(OC)c5O)C[C@@H]([C@H](C#N)N1[C@H]3CO[Si](c1ccccc1)(c1ccccc1)C(C)(C)C)N4C)OCO2 (stereo partly drawn) [compound 3] | 4.01 | 13.2 | 12.3 | 4.18 | 13.2 | 13 |  |  |  |  |  | 
C=CCOc1c(C)c2c(c3c1CC1[C@H]4c5c(cc(C)c(OC)c5OCOCCOC)C[C@@H]([C@H](C#N)N1[C@H]3CO[Si](c1ccccc1)(c1ccccc1)C(C)(C)C)N4C)OCO2 (stereo partly drawn) [compound 4] | 0.591 | 11.8 | 1.18 | 2.36 | 11.8 | 8.27 |  |  |  |  |  | 
C=CCOc1c(C)c2c(c3c1CC1[C@@H]4N[C@@H](Cc5cc(C)c(OC)c(OCOCCOC)c54)[C@H](C#N)N1[C@H]3CO[Si](c1ccccc1)(c1ccccc1)C(C)(C)C)OCO2 (stereo partly drawn) [compound 5] | 0.481 | 6.01 | 1.2 | 0.721 | 8.41 | 2.4 |  |  |  |  |  | 
COCCOCOc1c(OC)c(C)cc2c1[C@H]1N[C@@H](C2)[C@H](C#N)N2C1Cc1c(O)c(C)c3c(c1[C@@H]2CO[Si](c1ccccc1)(c1ccccc1)C(C)(C)C)OCO3 (stereo partly drawn) [compound 6] | 12.5 | 12.6 | 12.6 | 6.65 | 12.6 | 12.6 |  |  |  |  |  | 
COCCOCOc1c(OC)c(C)cc2c1[C@H]1N[C@@H](C2)[C@H](C#N)N2C1CC1(O)C(=O)C(C)=C3OCOC3=C1[C@@H]2CO[Si](c1ccccc1)(c1ccccc1)C(C)(C)C (stereo partly drawn) [compound 7] |  |  |  |  |  |  | 2.40E−06 | 0.918 | 5.46 | 3.51E−06 | 1.87 | 6.61
C=CCN1[C@@H]2c3c(cc(C)c(OC)c3OCOCCOC)C[C@H]1[C@H](C#N)N1C2CC2(O)C(=O)C(C)=C3OCOC3=C2[C@@H]1CO[Si](c1ccccc1)(c1ccccc1)C(C)(C)C (stereo partly drawn) [compound 8] | 7.82 | 11.8 | 11.8 | 11.8 | 11.8 | 11.8 |  |  |  |  |  | 
C=CCN1[C@@H]2c3c(cc(C)c(OC)c3OCOCCOC)C[C@H]1[C@H](C#N)N1C2CC2(O)C(=O)C(C)=C3OCOC3=C2[C@@H]1CO (stereo partly drawn) [compound 9] | 16.4 | 16.4 | 16.4 | 16.4 | 16.4 | 16.4 |  |  |  |  |  | 
